In patent US12281149B2, “Modulators of G-protein coupled receptors” (priority 2021, dated 2025):
pEC50: −log10 of the molar value. *1 amine or outer side, *2 acyl side, *3 side chain or, on linkers, in order; H or OH if unused. Where a SMILES comes first, the peptide text is derived from it. Side-chain parts run from the residue outwards. [ ]: non-standard residue; d: D form. The star is where a group is joined. C20 diacid = O=C(O)CCCCCCCCCCCCCCCCCCC(=O)*; γGlu = O=C(O)[C@H](CCC(=O)[*:2])N[*:1]; X58 = Cc1cc(F)cc(C(C)(C)C(=O)*)c1; X37 = CC(C)(C(=O)*)c1cc(F)ccc1F; AEEA = NCCOCCOCC(=O)O; Aib = CC(C)(N)C(=O)O; βAla = NCCC(=O)O

How the values were obtained:
Type in all cases: cell-based
GIP receptor [1] = molecular target: T1, GIP receptor (Homo sapiens, UniProt P48546); test: HitHunter cAMP assay, GIP receptor; settings: for Emax: CHO cells, cAMP, normalized to maximum signal from GIP (high) and DMSO (low), read-out: Emax GIP-1R
T1 sequence (P48546 22-466): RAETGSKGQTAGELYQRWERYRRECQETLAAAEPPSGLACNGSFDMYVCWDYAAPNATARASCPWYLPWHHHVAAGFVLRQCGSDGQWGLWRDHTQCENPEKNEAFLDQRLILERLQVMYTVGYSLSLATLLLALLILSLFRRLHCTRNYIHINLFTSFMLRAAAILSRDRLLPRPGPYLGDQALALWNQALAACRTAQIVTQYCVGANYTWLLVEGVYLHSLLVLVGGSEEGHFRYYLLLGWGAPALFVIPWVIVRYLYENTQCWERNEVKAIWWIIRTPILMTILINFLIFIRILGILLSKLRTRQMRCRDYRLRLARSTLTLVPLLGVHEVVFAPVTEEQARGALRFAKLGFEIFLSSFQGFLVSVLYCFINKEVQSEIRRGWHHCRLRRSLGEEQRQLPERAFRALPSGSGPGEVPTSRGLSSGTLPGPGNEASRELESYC

GIP receptor [2] = molecular target: T1, GIP receptor; test: PathHunter β-arrestin assay, GIP receptor; set-up: host or cells: PathHunter CHO-K1 GIPR β-Arrestin Cell Line
Method: β-arrestin-2 recruitment for GLP-1 receptor or GIP receptor was measured using the DiscoverX PathHunter Detection Kit and PathHunter® CHO-K1 GLPIR β-Arrestin Cell Line or PathHunter® CHO-K1 GIPR β-Arrestin Cell Line, respectively). Briefly, cells were grown in Ham's F12 Nutrient Mix with 10% FBS and lifted with Cell dissociation buffer, Enzyme free, PBS based (ThermoFisher). Harvested cells were pelleted and resuspended in Assay Complete Cell Plating Reagent 2 and 5000 cells per well were plated in tissue culture treated 384-well small volume white assay plates. Plates were then incubated at 37° C. and 5% CO2 overnight. The media was then replaced with fresh Assay Complete Cell Plating Reagent 2. Cells were then treated with 10 nl compound in DMSO using an ECHO 550 acoustic dispenser (Labcyte) in a 20-point dose response format in duplicate for 90 min at 37° C. The assay was then completed according to the manufacturer's instructions. Luminescence was measured using a Perkin Elmer Envision plate reader. Raw data was normalized to the maximum signal from GLP-1 or GIP (high) and DMSO (low). Dose response curves were analyzed using GraphPad Prism 9.0.

GLP-1 receptor [3] = molecular target: T2, GLP-1 receptor (Homo sapiens, UniProt P43220); test: HitHunter cAMP assay, GLP-1 receptor; settings: for Emax: CHO cells, cAMP, normalized to maximum signal from GLP-1 (high) and DMSO (low), read-out: Emax GLP-1R
T2 sequence (P43220 24-463): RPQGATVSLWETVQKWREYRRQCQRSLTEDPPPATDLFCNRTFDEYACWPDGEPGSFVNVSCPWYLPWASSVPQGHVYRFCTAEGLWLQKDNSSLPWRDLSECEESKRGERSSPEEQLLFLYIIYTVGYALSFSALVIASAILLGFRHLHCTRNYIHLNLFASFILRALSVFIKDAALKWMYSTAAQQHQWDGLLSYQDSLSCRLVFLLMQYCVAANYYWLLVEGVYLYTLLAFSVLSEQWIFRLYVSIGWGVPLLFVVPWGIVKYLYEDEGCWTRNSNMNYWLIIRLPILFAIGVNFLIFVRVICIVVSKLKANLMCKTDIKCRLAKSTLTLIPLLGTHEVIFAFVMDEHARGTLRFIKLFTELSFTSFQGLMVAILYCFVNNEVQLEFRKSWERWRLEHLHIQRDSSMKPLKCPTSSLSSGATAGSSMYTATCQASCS

GLP-1 receptor [4] = molecular target: T2, GLP-1 receptor; test: PathHunter β-arrestin assay, GLP-1 receptor; set-up: host or cells: PathHunter CHO-K1 GLP1R β-Arrestin Cell Line
[5] = CHO cells stably expressing GIP receptor, cAMP accumulation, 30 min, read-out: EC50 GIP-1R
[6] = β-arrestin-2 recruitment, PathHunter CHO-K1 GIPR β-Arrestin Cell Line, 90 min at 37° C., normalized to GIP, read-out: GIPR β Arrestin EC50
[7] = CHO cells stably expressing human GLP-1 receptor, cAMP accumulation, 30 min, read-out: EC50 GLP-1R
[8] = β-arrestin-2 recruitment, PathHunter CHO-K1 GLP1R β-Arrestin Cell Line, 90 min at 37° C., normalized to GLP-1, read-out: GLP-1R β Arrestin EC50

Structure (SMILES)	pEC50 (GIP receptor [1]; [5])	Emax (GIP receptor [1]) [%]	pEC50 (GIP receptor [2]; [6])	pEC50 (GLP-1 receptor [3]; [7])	Emax (GLP-1 receptor [3]) [%]	pEC50 (GLP-1 receptor [4]; [8])	pEC50 (GIP receptor [1])	pEC50 (GIP receptor [2])	pEC50 (GLP-1 receptor [3])	pEC50 (GLP-1 receptor [4])
CC[C@H](C)[C@H](NC(=O)[C@H](CO)NC(=O)[C@H](Cc1ccc(O)cc1)NC(=O)[C@H](CC(=O)O)NC(=O)[C@H](CO)NC(=O)[C@@H](NC(=O)[C@](C)(Cc1ccccc1F)NC(=O)[C@@H](NC(=O)CNC(=O)[C@H](CCC(=O)O)NC(=O)CCNC(=O)C1(c2ccc(Cl)cc2)CCCC1)[C@@H](C)O)[C@@H](C)O)C(=O)N[C@@H](Cc1ccc(O)cc1)C(=O)N[C@@H](CC(C)C)C(=O)N[C@@H](CC(=O)O)C(=O)N[C@@H](CCCCN)C(=O)N[C@@H](CCC(N)=O)C(=O)N[C@@H](C)C(=O)N[C@@H](C)C(=O)NC(C)(C)C(=O)N[C@@H](CCC(=O)O)C(=O)N[C@@H](Cc1ccccc1)C(=O)N[C@H](C(=O)N[C@@H](CC(N)=O)C(=O)N[C@@H](Cc1c[nH]c2ccccc12)C(=O)N[C@@H](CC(C)C)C(=O)N[C@@H](CC(C)C)C(=O)N[C@@H](C)C(=O)NCC(=O)NCC(=O)N1CCC[C@H]1C(=O)N[C@@H](CO)C(=O)N[C@@H](CO)C(=O)NCC(=O)N[C@@H](C)C(=O)N1CCC[C@H]1C(=O)N1CCC[C@H]1C(=O)N1CCC[C@H]1C(=O)N[C@@H](CO)C(=O)N[C@@H](CCCCNC(=O)COCCOCCNC(=O)COCCOCCNC(=O)CC[C@H](NC(=O)CCCCCCCCCCCCCCCCCCC(=O)O)C(=O)O)C(N)=O)C(C)C [Compound 141]	9.00 to 10.00	108	> 6.00	9.00 to 10.00	97	< 6.00				
CC[C@H](C)[C@H](NC(=O)[C@H](CO)NC(=O)[C@H](Cc1ccc(O)cc1)NC(=O)[C@H](CC(=O)O)NC(=O)[C@H](CO)NC(=O)[C@@H](NC(=O)[C@](C)(Cc1ccccc1F)NC(=O)[C@@H](NC(=O)CNC(=O)[C@H](CCC(=O)O)NC(=O)CCNC(=O)C1(c2ccccc2)CNC(=O)C1)[C@@H](C)O)[C@@H](C)O)C(=O)N[C@@H](Cc1ccc(O)cc1)C(=O)N[C@@H](CC(C)C)C(=O)N[C@@H](CC(=O)O)C(=O)N[C@@H](CCCCN)C(=O)N[C@@H](CCC(N)=O)C(=O)N[C@@H](C)C(=O)N[C@@H](C)C(=O)NC(C)(C)C(=O)N[C@@H](CCC(=O)O)C(=O)N[C@@H](Cc1ccccc1)C(=O)N[C@H](C(=O)N[C@@H](CC(N)=O)C(=O)N[C@@H](Cc1c[nH]c2ccccc12)C(=O)N[C@@H](CC(C)C)C(=O)N[C@@H](CC(C)C)C(=O)N[C@@H](C)C(=O)NCC(=O)NCC(=O)N1CCC[C@H]1C(=O)N[C@@H](CO)C(=O)N[C@@H](CO)C(=O)NCC(=O)N[C@@H](C)C(=O)N1CCC[C@H]1C(=O)N1CCC[C@H]1C(=O)N1CCC[C@H]1C(=O)N[C@@H](CO)C(=O)N[C@@H](CCCCNC(=O)COCCOCCNC(=O)COCCOCCNC(=O)CC[C@H](NC(=O)CCCCCCCCCCCCCCCCCCC(=O)O)C(=O)O)C(N)=O)C(C)C (stereo partly drawn) [Compound 142]	> 10.00	99	> 6.00	9.00 to 10.00	99	> 6.00				
CC[C@H](C)[C@H](NC(=O)[C@H](CO)NC(=O)[C@H](CCCCNC(=O)COCCOCCNC(=O)COCCOCCNC(=O)CC[C@H](NC(=O)CCCCCCCCCCCCCCCCCCC(=O)O)C(=O)O)NC(=O)[C@H](CC(=O)O)NC(=O)[C@H](CO)NC(=O)[C@@H](NC(=O)[C@H](Cc1ccccc1)NC(=O)[C@@H](NC(=O)CNC(=O)[C@H](CCC(=O)O)NC(=O)CCNC(=O)C(C)(C)c1cccc(C#N)c1)[C@@H](C)O)[C@@H](C)O)C(=O)N[C@@H](Cc1ccc(O)cc1)C(=O)N[C@@H](CC(C)C)C(=O)N[C@@H](CC(=O)O)C(=O)N[C@@H](CCCCN)C(=O)N[C@@H](CCC(N)=O)C(=O)N[C@@H](C)C(=O)N[C@@H](C)C(=O)NC(C)(C)C(=O)N[C@@H](CCC(=O)O)C(=O)N[C@@H](Cc1ccccc1)C(=O)N[C@H](C(=O)N[C@@H](CC(N)=O)C(=O)N[C@@H](Cc1c[nH]c2ccccc12)C(=O)N[C@@H](CC(C)C)C(=O)N[C@@H](CC(C)C)C(=O)N[C@@H](C)C(=O)NCC(=O)NCC(=O)N1CCC[C@H]1C(=O)N[C@@H](CO)C(=O)N[C@@H](CO)C(=O)NCC(=O)N[C@@H](C)C(=O)N1CCC[C@H]1C(=O)N1CCC[C@H]1C(=O)N1CCC[C@H]1C(=O)N[C@@H](CO)C(N)=O)C(C)C [Compound 143]		100			101		7.00 to 8.00	< 6.00	> 10.00	> 6.00
CC[C@H](C)[C@H](NC(=O)[C@H](CC(C)C)NC(=O)[C@H](Cc1c[nH]c2ccccc12)NC(=O)[C@H](CCC(N)=O)NC(=O)[C@@H](NC(=O)[C@H](Cc1ccccc1)NC(=O)[C@H](C)NC(=O)[C@H](CCCCNC(=O)COCCOCCNC(=O)COCCOCCNC(=O)CC[C@H](NC(=O)CCCCCCCCCCCCCCCCCCC(=O)O)C(=O)O)NC(=O)[C@H](CCC(N)=O)NC(=O)[C@H](C)NC(=O)[C@@H](NC(=O)[C@H](CCCCN)NC(=O)[C@H](CC(=O)O)NC(=O)[C@H](CC(C)C)NC(=O)C(C)(C)NC(=O)[C@@H](NC(=O)[C@H](CO)NC(=O)[C@H](Cc1ccc(O)cc1)NC(=O)[C@H](CC(=O)O)NC(=O)[C@H](CO)NC(=O)[C@@H](NC(=O)[C@H](Cc1ccccc1)NC(=O)[C@@H](NC(=O)CNC(=O)[C@H](CCC(=O)O)NC(=O)CCNC(=O)C(C)(C)c1cc(C)cc(F)c1)[C@@H](C)O)[C@@H](C)O)[C@@H](C)CC)[C@@H](C)CC)C(C)C)C(=O)N[C@@H](C)C(=O)NCC(=O)NCC(=O)N1CCC[C@H]1C(=O)N[C@@H](CO)C(=O)N[C@@H](CO)C(=O)NCC(=O)N[C@@H](C)C(=O)N1CCC[C@H]1C(=O)N1CCC[C@H]1C(=O)N1CCC[C@H]1C(=O)N[C@@H](CO)C(N)=O [Compound 144] ({X58-βAla}-EGTFTSDYSI[Aib]LDKIAQK([AEEA-AEEA-γGlu-C20 diacid])AFVQWLIAGGPSSGAPPPS-NH2)	8.00 to 9.00	103	< 6.00	> 10.00	99	< 6.00				
CC[C@H](C)[C@H](NC(=O)[C@H](CO)NC(=O)[C@H](Cc1ccc(O)cc1)NC(=O)[C@H](CC(=O)O)NC(=O)[C@H](CO)NC(=O)[C@@H](NC(=O)[C@H](Cc1ccccc1)NC(=O)[C@@H](NC(=O)CNC(=O)[C@H](CCC(=O)O)NC(=O)CCNC(=O)C1(c2ccc(F)cc2F)CCCC1)[C@@H](C)O)[C@@H](C)O)C(=O)N[C@@H](Cc1ccc(O)cc1)C(=O)N[C@@H](CC(C)C)C(=O)N[C@@H](CC(=O)O)C(=O)N[C@@H](CCCCN)C(=O)N[C@@H](CCC(N)=O)C(=O)N[C@@H](C)C(=O)N[C@@H](C)C(=O)NC(C)(C)C(=O)N[C@@H](CCC(=O)O)C(=O)N[C@@H](Cc1ccccc1)C(=O)N[C@H](C(=O)N[C@@H](CC(N)=O)C(=O)N[C@@H](Cc1c[nH]c2ccccc12)C(=O)N[C@@H](CC(C)C)C(=O)N[C@@H](CC(C)C)C(=O)N[C@@H](C)C(=O)NCC(=O)NCC(=O)N1CCC[C@H]1C(=O)N[C@@H](CO)C(=O)N[C@@H](CO)C(=O)NCC(=O)N[C@@H](C)C(=O)N1CCC[C@H]1C(=O)N1CCC[C@H]1C(=O)N1CCC[C@H]1C(=O)N[C@@H](CO)C(=O)N[C@@H](CCCCNC(=O)COCCOCCNC(=O)COCCOCCNC(=O)CC[C@H](NC(=O)CCCCCCCCCCCCCCCCCCC(=O)O)C(=O)O)C(N)=O)C(C)C [Compound 145]	8.00 to 9.00	102	< 6.00	8.00 to 9.00	97	< 6.00				
CC[C@H](C)[C@H](NC(=O)[C@H](CC(C)C)NC(=O)[C@H](Cc1c[nH]c2ccccc12)NC(=O)[C@H](CCC(N)=O)NC(=O)[C@@H](NC(=O)[C@H](Cc1ccccc1)NC(=O)[C@H](C)NC(=O)[C@H](CCCCNC(=O)COCCOCCNC(=O)COCCOCCNC(=O)CC[C@H](NC(=O)CCCCCCCCCCCCCCCCCCC(=O)O)C(=O)O)NC(=O)[C@H](CCC(N)=O)NC(=O)[C@H](C)NC(=O)[C@@H](NC(=O)[C@H](CCCCN)NC(=O)[C@H](CC(=O)O)NC(=O)[C@H](CC(C)C)NC(=O)C(C)(C)NC(=O)[C@@H](NC(=O)[C@H](CO)NC(=O)[C@H](Cc1ccc(O)cc1)NC(=O)[C@H](CC(=O)O)NC(=O)[C@H](CO)NC(=O)[C@@H](NC(=O)[C@H](Cc1ccccc1)NC(=O)[C@@H](NC(=O)CNC(=O)[C@H](CCC(=O)O)NC(=O)CCNC(=O)C(C)(C)c1cc(F)ccc1F)[C@@H](C)O)[C@@H](C)O)[C@@H](C)CC)[C@@H](C)CC)C(C)C)C(=O)N[C@@H](C)C(=O)NCC(=O)NCC(=O)N1CCC[C@H]1C(=O)N[C@@H](CO)C(=O)N[C@@H](CO)C(=O)NCC(=O)N[C@@H](C)C(=O)N1CCC[C@H]1C(=O)N1CCC[C@H]1C(=O)N1CCC[C@H]1C(=O)N[C@@H](CO)C(N)=O [Compound 146] ({X37-βAla}-EGTFTSDYSI[Aib]LDKIAQK([AEEA-AEEA-γGlu-C20 diacid])AFVQWLIAGGPSSGAPPPS-NH2)	8.00 to 9.00	104	> 6.00	9.00 to 10.00	102	< 6.00				
